# Assay results reported in publication PMC5218480 (PLoS ONE, 2017).
# System: MV-4-11 cells
# Experiment: Gene expression microarray analysis (Affymetrix PrimeView) and GSEA
# Assay type: cell-based, human
# Design: RFU PODN (11730768_x_at) / Fold change /veh PODN (11730768_x_at) / RFU LINC00158 (11744669_a_at) / Fold change /veh LINC00158 (11744669_a_at) / RFU DUSP10 (11751237_a_at) / Fold change /veh DUSP10 (11751237_a_at) / RFU ID3 (11757404_x_at) / Fold change /veh ID3 (11757404_x_at) / RFU PLEKHG5 (11737974_s_at) / Fold change /veh PLEKHG5 (11737974_s_at) / RFU LRRC4B (11730491_at) / Fold change /veh LRRC4B (11730491_at) / RFU GIMAP4 (11747438_a_at) / Fold change /veh GIMAP4 (11747438_a_at) / RFU KRT8 (11758183_x_at) / Fold change /veh KRT8 (11758183_x_at) / RFU CNN1 (11734310_a_at) / Fold change /veh CNN1 (11734310_a_at) / RFU VPS37D (11726825_at) / Fold change /veh VPS37D (11726825_at) / RFU C10orf10 (11716522_x_at) / Fold change /veh C10orf10 (11716522_x_at) / RFU KIR2DL2 /// KIR2DL4 /// KIR2DL5A /// KIR2DL5B /// KIR2DS1 /// KIR2DS2 /// KIR2DS3 /// KIR2DS4 /// KIR3DL3 /// KIR3DL3 /// KIR3DS1 (11738374_at) / Fold change /veh KIR2DL2 /// KIR2DL4 /// KIR2DL5A /// KIR2DL5B /// KIR2DS1 /// KIR2DS2 /// KIR2DS3 /// KIR2DS4 /// KIR3DL3 /// KIR3DL3 /// KIR3DS1 (11738374_at) / RFU C1QL1 (11718748_at) / Fold change /veh C1QL1 (11718748_at) / RFU TMPRSS4 (11747572_a_at) / Fold change /veh TMPRSS4 (11747572_a_at) / RFU HAMP (11756126_x_at) / Fold change /veh HAMP (11756126_x_at) / RFU RNFT2 (11725882_a_at) / Fold change /veh RNFT2 (11725882_a_at) / RFU NR4A2 (11747474_a_at) / Fold change /veh NR4A2 (11747474_a_at) / RFU ABCC12 (11746883_a_at) / Fold change /veh ABCC12 (11746883_a_at) / RFU TMEM136 (11760407_x_at) / Fold change /veh TMEM136 (11760407_x_at) / RFU CLDN22 /// WWC2 (11732394_at) / Fold change /veh CLDN22 /// WWC2 (11732394_at) / RFU HLA-DPB1 (11760878_x_at) / Fold change /veh HLA-DPB1 (11760878_x_at) / RFU SPINT1 (11716480_a_at) / Fold change /veh SPINT1 (11716480_a_at) / RFU GAP43 (11754022_s_at) / Fold change /veh GAP43 (11754022_s_at) / RFU A4GNT (11735810_at) / Fold change /veh A4GNT (11735810_at) / RFU PRB3 (11715151_x_at) / Fold change /veh PRB3 (11715151_x_at) / RFU TUBB4B (11761932_at) / Fold change /veh TUBB4B (11761932_at) / RFU CAPN14 (11732068_a_at) / Fold change /veh CAPN14 (11732068_a_at) / RFU TMCC2 (11721928_a_at) / Fold change /veh TMCC2 (11721928_a_at) / RFU IRGQ (11745062_a_at) / Fold change /veh IRGQ (11745062_a_at) / RFU FAM174B (11720279_a_at) / Fold change /veh FAM174B (11720279_a_at) / RFU TMPRSS4 (11748680_a_at) / Fold change /veh TMPRSS4 (11748680_a_at) / RFU FAM212B (11763350_a_at) / Fold change /veh FAM212B (11763350_a_at) / RFU PLEKHG5 (11743358_a_at) / Fold change /veh PLEKHG5 (11743358_a_at) / RFU ZSCAN30 (11745921_a_at) / Fold change /veh ZSCAN30 (11745921_a_at) / RFU CMKLR1 (11741424_a_at) / Fold change /veh CMKLR1 (11741424_a_at) / RFU LOC101060620 /// MAPK8IP1 (11723275_at) / Fold change /veh LOC101060620 /// MAPK8IP1 (11723275_at) / RFU SPTSSB (11747773_x_at) / Fold change /veh SPTSSB (11747773_x_at) / RFU PRSS12 (11739890_at) / Fold change /veh PRSS12 (11739890_at) / RFU BIN1 (11741810_x_at) / Fold change /veh BIN1 (11741810_x_at) / RFU WNT11 (11732464_a_at) / Fold change /veh WNT11 (11732464_a_at) / RFU C10orf10 (11716521_a_at) / Fold change /veh C10orf10 (11716521_a_at) / RFU C5orf56 (11738089_at) / Fold change /veh C5orf56 (11738089_at) / RFU CYB561 (11721691_x_at) / Fold change /veh CYB561 (11721691_x_at) / RFU ANKRD19P (11752326_a_at) / Fold change /veh ANKRD19P (11752326_a_at) / RFU OR2T12 /// OR2T33 /// OR2T8 (11738714_s_at) / Fold change /veh OR2T12 /// OR2T33 /// OR2T8 (11738714_s_at) / RFU VCAN (11748164_a_at) / Fold change /veh VCAN (11748164_a_at) / RFU JSRP1 (11732532_at) / Fold change /veh JSRP1 (11732532_at) / RFU KRTAP10-11 (11738290_x_at) / Fold change /veh KRTAP10-11 (11738290_x_at) / RFU MYO3A (11730013_a_at) / Fold change /veh MYO3A (11730013_a_at) / RFU EBF3 (11725865_a_at) / Fold change /veh EBF3 (11725865_a_at) / RFU CAMK2N1 (11719241_x_at) / Fold change /veh CAMK2N1 (11719241_x_at) / RFU C5orf56 (11738088_a_at) / Fold change /veh C5orf56 (11738088_a_at) / RFU OLFML3 (11715873_a_at) / Fold change /veh OLFML3 (11715873_a_at) / RFU LOC100653217 /// NTM (11731650_a_at) / Fold change /veh LOC100653217 /// NTM (11731650_a_at) / RFU MAPK11 (11762145_a_at) / Fold change /veh MAPK11 (11762145_a_at) / RFU FIZ1 (11724087_x_at) / Fold change /veh FIZ1 (11724087_x_at) / RFU OASL (11726364_x_at) / Fold change /veh OASL (11726364_x_at) / RFU SOX15 (11748057_x_at) / Fold change /veh SOX15 (11748057_x_at) / RFU CD79A (11719716_a_at) / Fold change /veh CD79A (11719716_a_at) / RFU HIST1H1D (11736915_at) / Fold change /veh HIST1H1D (11736915_at) / RFU CASKIN2 (11723855_a_at) / Fold change /veh CASKIN2 (11723855_a_at) / RFU LOC730098 (11760151_x_at) / Fold change /veh LOC730098 (11760151_x_at) / RFU OR4N2 (11742367_at) / Fold change /veh OR4N2 (11742367_at) / RFU PRRT2 (11749266_a_at) / Fold change /veh PRRT2 (11749266_a_at) / RFU SNX32 (11753110_a_at) / Fold change /veh SNX32 (11753110_a_at) / RFU CDHR5 (11726645_a_at) / Fold change /veh CDHR5 (11726645_a_at) / RFU RCAN1 (11760418_a_at) / Fold change /veh RCAN1 (11760418_a_at) / RFU FAM167A (11723789_a_at) / Fold change /veh FAM167A (11723789_a_at) / RFU FAM26E (11764081_at) / Fold change /veh FAM26E (11764081_at) / RFU ISYNA1 (11749810_s_at) / Fold change /veh ISYNA1 (11749810_s_at) / RFU ACY1 (11761880_at) / Fold change /veh ACY1 (11761880_at) / RFU 11764098_at / Fold change /veh 11764098_at / RFU SAMD14 (11745864_x_at) / Fold change /veh SAMD14 (11745864_x_at) / RFU NPB (11741838_a_at) / Fold change /veh NPB (11741838_a_at) / RFU TMPRSS6 (11731388_a_at) / Fold change /veh TMPRSS6 (11731388_a_at) / RFU KRTAP10-2 (11738614_at) / Fold change /veh KRTAP10-2 (11738614_at) / RFU ARHGAP8 /// PRR5-ARHGAP8 (11727945_x_at) / Fold change /veh ARHGAP8 /// PRR5-ARHGAP8 (11727945_x_at) / RFU KRTAP5-7 /// NADSYN1 (11734609_at) / Fold change /veh KRTAP5-7 /// NADSYN1 (11734609_at) / RFU RASL12 (11751679_a_at) / Fold change /veh RASL12 (11751679_a_at) / RFU CDKN2B (11736163_a_at) / Fold change /veh CDKN2B (11736163_a_at) / RFU PRF1 (11729649_at) / Fold change /veh PRF1 (11729649_at) / RFU, ZNF638 /// ZNF638-IT1 / Fold change vs veh, ZNF638 /// ZNF638-IT1 / RFU, PANK3 / Fold change vs veh, PANK3 / RFU, SH3YL1 / Fold change vs veh, SH3YL1 / RFU, ZEB2 / Fold change vs veh, ZEB2 / RFU, NRIP1 / Fold change vs veh, NRIP1 / RFU, PTTG1IP / Fold change vs veh, PTTG1IP / RFU, CAPN2 / Fold change vs veh, CAPN2 / RFU, MED14 / Fold change vs veh, MED14 / RFU, SNORA58 / Fold change vs veh, SNORA58 / RFU, C1orf63 / Fold change vs veh, C1orf63 / RFU, LRRFIP1 / Fold change vs veh, LRRFIP1 / RFU, NDUFAF7 / Fold change vs veh, NDUFAF7 / RFU, SLC12A2 / Fold change vs veh, SLC12A2 / RFU, IBTK / Fold change vs veh, IBTK / RFU, ESF1 / Fold change vs veh, ESF1 / Fold change vs veh, TMEM50B / RFU, TAOK1 / Fold change vs veh, TAOK1 / RFU, ACBD3 / Fold change vs veh, ACBD3 / RFU, TMA16 / Fold change vs veh, TMA16 / RFU, RWDD3 / Fold change vs veh, RWDD3 / RFU, BCAT1 / Fold change vs veh, BCAT1 / RFU, EDEM3 / Fold change vs veh, EDEM3 / RFU, TMEM33 / Fold change vs veh, TMEM33 / RFU, WDR75 / Fold change vs veh, WDR75 / RFU, AHCTF1 / Fold change vs veh, AHCTF1 / RFU, TFRC / Fold change vs veh, TFRC / RFU, ZDHHC17 / Fold change vs veh, ZDHHC17 / RFU, NOM1 / Fold change vs veh, NOM1 / RFU, ARL8B / Fold change vs veh, ARL8B / RFU, ZBTB11 / Fold change vs veh, ZBTB11 / RFU, TAMM41 / Fold change vs veh, TAMM41 / RFU, KIAA1704 /// LOC100996395 / Fold change vs veh, KIAA1704 /// LOC100996395 / RFU, ING1 / Fold change vs veh, ING1 / RFU, TRMT61B / Fold change vs veh, TRMT61B / RFU, FUBP3 / Fold change vs veh, FUBP3 / RFU, TP53 / Fold change vs veh, TP53 / RFU, TNKS2 / Fold change vs veh, TNKS2 / RFU, ZFP14 / Fold change vs veh, ZFP14 / RFU, ACTR2 / Fold change vs veh, ACTR2 / RFU, PPP3R1 / Fold change vs veh, PPP3R1 / RFU, PIK3R1 / Fold change vs veh, PIK3R1 / RFU, HNRNPA1 / Fold change vs veh, HNRNPA1 / RFU, RNF170 / Fold change vs veh, RNF170 / RFU, ZNF28 / Fold change vs veh, ZNF28 / RFU, RNGTT / Fold change vs veh, RNGTT / RFU, OGT / Fold change vs veh, OGT / RFU, BRD1 / Fold change vs veh, BRD1 / RFU, MARS / Fold change vs veh, MARS / RFU, ZNF655 / Fold change vs veh, ZNF655 / RFU, FAHD1 / Fold change vs veh, FAHD1 / RFU, BDP1 / Fold change vs veh, BDP1 / RFU, LRRCC1 / Fold change vs veh, LRRCC1 / RFU, ARID1A / Fold change vs veh, ARID1A / RFU, ZNF146 / Fold change vs veh, ZNF146 / RFU, ZNF330 / Fold change vs veh, ZNF330 / RFU, GPN3 / Fold change vs veh, GPN3 / RFU, C9orf123 / Fold change vs veh, C9orf123 / RFU, N4BP2L2 / Fold change vs veh, N4BP2L2 / RFU, ARFIP1 / Fold change vs veh, ARFIP1 / RFU, FAM179B / Fold change vs veh, FAM179B / RFU, BCL10 / Fold change vs veh, BCL10 / RFU, UHRF1BP1L / Fold change vs veh, UHRF1BP1L / RFU, BET1 / Fold change vs veh, BET1 / RFU, CNOT2 / Fold change vs veh, CNOT2 / RFU, ZNF268 / Fold change vs veh, ZNF268 / Fold change vs veh, ZNF507 / RFU, DGCR2 / Fold change vs veh, DGCR2 / RFU, WDSUB1 / Fold change vs veh, WDSUB1 / Fold change vs veh, HSP90B1 /// MIR3652 / RFU, ADSS / Fold change vs veh, ADSS / RFU, GK / Fold change vs veh, GK / RFU, ZNF148 / Fold change vs veh, ZNF148 / RFU, TAF9 / Fold change vs veh, TAF9 / RFU, SLC1A5 / Fold change vs veh, SLC1A5 / RFU, SLMO2 / Fold change vs veh, SLMO2 / RFU, ABCC4 / Fold change vs veh, ABCC4 / RFU, LOC101060439 /// RAP1B / Fold change vs veh, LOC101060439 /// RAP1B / RFU, RFX7 / Fold change vs veh, RFX7 / RFU, GTPBP10 / Fold change vs veh, GTPBP10 / RFU, CNEP1R1 / Fold change vs veh, CNEP1R1 / RFU, BIVM-ERCC5 /// ERCC5 / Fold change vs veh, BIVM-ERCC5 /// ERCC5 / RFU, ILF3 / Fold change vs veh, ILF3 / RFU 11762660_at / Fold change /veh 11762660_at / RFU VCAN (11757783_s_at) / Fold change /veh VCAN (11757783_s_at) / RFU DDX43 (11728927_at) / Fold change /veh DDX43 (11728927_at) / RFU KRT8 (11758188_x_at) / Fold change /veh KRT8 (11758188_x_at) / RFU NKD1 (11759106_at) / Fold change /veh NKD1 (11759106_at) / RFU SRD5A1 (11742802_a_at) / Fold change /veh SRD5A1 (11742802_a_at) / RFU TPSAB1 /// TPSB2 (11721975_s_at) / Fold change /veh TPSAB1 /// TPSB2 (11721975_s_at) / RFU GSTM3 (11746129_a_at) / Fold change /veh GSTM3 (11746129_a_at) / RFU IL23R (11737362_x_at) / Fold change /veh IL23R (11737362_x_at) / RFU TMEM51 (11727254_a_at) / Fold change /veh TMEM51 (11727254_a_at) / RFU PIWIL2 (11732686_x_at) / Fold change /veh PIWIL2 (11732686_x_at) / RFU ORM1 (11744905_x_at) / Fold change /veh ORM1 (11744905_x_at) / RFU CCDC152 (11743942_at) / Fold change /veh CCDC152 (11743942_at) / RFU ECM1 (11717891_a_at) / Fold change /veh ECM1 (11717891_a_at) / RFU IL23R (11748794_a_at) / Fold change /veh IL23R (11748794_a_at) / RFU TNFAIP8L3 (11732012_x_at) / Fold change /veh TNFAIP8L3 (11732012_x_at) / RFU MBOAT4 (11741988_at) / Fold change /veh MBOAT4 (11741988_at) / RFU 11764193_at / Fold change /veh 11764193_at / RFU TMEM53 (11763286_at) / Fold change /veh TMEM53 (11763286_at) / RFU MAGEB2 (11727129_at) / Fold change /veh MAGEB2 (11727129_at) / RFU TMEM200A (11744735_a_at) / Fold change /veh TMEM200A (11744735_a_at) / RFU CCDC152 (11751479_a_at) / Fold change /veh CCDC152 (11751479_a_at) / RFU FAM211A (11726209_a_at) / Fold change /veh FAM211A (11726209_a_at) / RFU RGS16 (11746705_a_at) / Fold change /veh RGS16 (11746705_a_at) / RFU VCAN (11755009_s_at) / Fold change /veh VCAN (11755009_s_at) / RFU RHOB (11743442_s_at) / Fold change /veh RHOB (11743442_s_at) / RFU RGS16 (11720943_a_at) / Fold change /veh RGS16 (11720943_a_at) / RFU RGS16 (11720944_at) / Fold change /veh RGS16 (11720944_at) / RFU, VPS4B / Fold change vs veh, VPS4B / RFU, CREB1 / Fold change vs veh, CREB1 / RFU, DNAJC13 / Fold change vs veh, DNAJC13 / RFU, GNAQ / Fold change vs veh, GNAQ / RFU, CDK5R1 / Fold change vs veh, CDK5R1 / RFU, ZRANB3 / Fold change vs veh, ZRANB3 / RFU, CUL4A / Fold change vs veh, CUL4A / RFU, CCNY / Fold change vs veh, CCNY / RFU, UFL1 / Fold change vs veh, UFL1 / RFU, COG3 / Fold change vs veh, COG3 / RFU, DIAPH2 / Fold change vs veh, DIAPH2 / RFU, SKA2 / Fold change vs veh, SKA2 / RFU, AFF3 / Fold change vs veh, AFF3 / RFU, LMF1 / Fold change vs veh, LMF1 / RFU, IPO11 / Fold change vs veh, IPO11 / RFU, DFFB / Fold change vs veh, DFFB / RFU, FOXP1 / Fold change vs veh, FOXP1 / RFU, CARD8 / Fold change vs veh, CARD8 / RFU, STRN3 / Fold change vs veh, STRN3 / RFU, ADK / Fold change vs veh, ADK / RFU, RASSF2 / Fold change vs veh, RASSF2 / RFU, WIPF1 / Fold change vs veh, WIPF1 / RFU, LARP1B / Fold change vs veh, LARP1B / RFU, RASA1 / Fold change vs veh, RASA1 / RFU, RB1 / Fold change vs veh, RB1 / RFU, PPFIA1 / Fold change vs veh, PPFIA1 / RFU, MAT2A / Fold change vs veh, MAT2A / RFU, CCT5 / Fold change vs veh, CCT5 / RFU, WDR92 / Fold change vs veh, WDR92 / RFU, CUX1 / Fold change vs veh, CUX1 / RFU, TTC7A / Fold change vs veh, TTC7A / RFU, TMEM135 / Fold change vs veh, TMEM135 / RFU, DEPTOR / Fold change vs veh, DEPTOR / RFU, CPM / Fold change vs veh, CPM / RFU, DNAJB6 / Fold change vs veh, DNAJB6 / RFU, CACNA2D3 / Fold change vs veh, CACNA2D3 / RFU, DTX4 / Fold change vs veh, DTX4 / RFU, TFCP2 / Fold change vs veh, TFCP2 / RFU, GMCL1 /// GMCL1P1 / Fold change vs veh, GMCL1 /// GMCL1P1 / RFU, AEBP2 / Fold change vs veh, AEBP2 / RFU, SNHG1 /// SNORD22 /// SNORD25 /// SNORD26 /// SNORD27 /// SNORD28 /// SNORD29 /// SNORD31 / Fold change vs veh, SNHG1 /// SNORD22 /// SNORD25 /// SNORD26 /// SNORD27 /// SNORD28 /// SNORD29 /// SNORD31 / Fold change (Aza/veh), C12orf56 (ProbeSet 11735607_a_at) / Fold change (ACY-1035/veh), C12orf56 (ProbeSet 11735607_a_at) / Fold change (Aza/veh), FGFR1OP (ProbeSet 11751329_s_at) / Fold change (ACY-1035/veh), FGFR1OP (ProbeSet 11751329_s_at) / Fold change (Aza/veh), VPS36 (ProbeSet 11739960_a_at) / Fold change (ACY-1035/veh), VPS36 (ProbeSet 11739960_a_at) / RFU SYPL1 (11715823_x_at) / Fold change /veh SYPL1 (11715823_x_at) / RFU IGFBP7 (11715501_s_at) / Fold change /veh IGFBP7 (11715501_s_at) / RFU REEP3 (11722064_at) / Fold change /veh REEP3 (11722064_at) / RFU IGLL1 (11728026_x_at) / Fold change /veh IGLL1 (11728026_x_at): dose or concentration left out as unconfirmed
# Conditions: ProbeSet 11756954_s_at; LIST B
smiles,measurement,value
Nc1ncn([C@@H]2O[C@H](CO)[C@@H](O)[C@H]2O)c(=O)n1 [azacitidine],"RFU, ZEB2",1324.44 RFU
